In patent US9926304B2, “1-(arylmethyl)quinazoline-2,4(1H,3H)-diones as PARP inhibitors and the use thereof” (Impact Therapeutics, Inc., priority 2011, dated 2018) one finds IC50 and EC50 data, which are given here for 24 compounds.

Experiment [1] deals with SW620 human colorectal cancer cells. As to the kind of experiment: MTT based cell viability assay: potentiation of the growth inhibiting activity of MMS. The settings on record: Homo sapiens, SW-620, 120 h, read-out: IC50 (nM), potentiation of the growth inhibiting activity of MMS, SW620 cells, 1.7 μg/ml MMS, 5 days (120 hours), MTT.
Experiment [2] relates to Human breast cancer cell line T47D. The experiment in a line: Cell based caspase-3 activity assay: potentiation of MMS induced apoptosis. The settings on record: Homo sapiens, T47D, 24 h, T47D cells, 11.1 μg/ml MMS, 24 hours, intracellular caspase-3 activity; read-out: EC50 (nM), potentiation of the apoptosis inducing activity of MMS. The source says:
Determination of the synergistic potentiation effect of 1-(3-(4-(pyrimidin-2-yl)piperazine-1-carbonyl)benzyl)quinazoline-2,4(1H,3H)-dione and analogs on MMS induced apoptosis using a cell based caspase-3 activity assay
Human breast cancer cell line T47D was used to determine the potentiation effect of PARP inhibitors on the apoptosis inducing activity of DNA damaging anticancer drugs such as MMS. Intracellular caspase-3 activity was used to measure cell apoptosis. The dose response effect of MMS to induce intracellular caspase activity was carefully titrated and the concentration that only induces a minimal level of caspase activity was used to test the potentiation effect of PARP inhibitors. Briefly, T47D cells were grown in DMEM/F12 cell culture medium (Hyclone) supplemented with 0.2 U/ml insulin (Genview) and 10% FBS (Hyclone). A day before experiment, 20000 of T47D cells were seeded to each well of a 96-well cell culture plate and maintained at 37° C. and 5% CO2 in a cell culture incubator overnight. On the day of experiment, cell culture medium was removed. One hundred and eighty μl of fresh medium containing 11.1 μg/ml MMS was added to each well and followed by 20 μl medium containing 10 folds of the concentrations of experimental drugs or reference compounds (ADZ2281 and ABT-888). The serial dilutions of the compounds to be tested and the reference compounds were made in a 1:3 and 1:10 fashion in DMSO. The 10-fold compound solutions were made by mixing 10 μl DMSO serial dilution solutions with 90 μl fresh growth medium. Twenty four hours later, the cells in the 96-well plates were centrifuged at 1000 g for 5 min and the supernatants were removed. Fifty μl lysis buffer (10 mM Tris, pH7.5, 0.1M NaCl, 1 mM EDTA, 0.01% Triton X-100) was added to each well and the plates were shaked horizontally for 30 min at 4° C. After centrifugation at 1000 g at 4° C. for 10 min, 20 μl of supernatant was transferred from each well to a corresponding well in a 384-well black plate. Twenty μl of buffer (20 mM PIPES, pH7.4, 4 mM EDTA and 0.2% CHAPS) containing 20 μM fluorescent caspase-3 substrate ((Ac-DEVD)2-R110, AnaSpec Cat #60304-5) was added to each well afterwards. The plates were shaked to uniformly mix the wells and incubated at 37° C. for 3 h. The fluorescence intensity was measured using the following wavelength: ex: 496 nm, em: 520 nm using a fluorescence plate reader (Varioskan Flash, Thermo Fisher Scientific). The caspase-3 activity induced by the compounds was expressed as a relative fluorescence unit (RFU). The obtained fluorescence readings were analyzed using a commercial graphic software (GraphPad Prism 5) and plotted against the Log value of the compound concentrations. The EC50 values were obtained by fitting the data points with the equation of Y (fluorescence reading)=minimal fluorescence reading+(maximal fluorescence reading−minimal fluorescence reading)/(1+10^(Log EC50−Log C)), where C is the concentration of the testing compound.
The synergistic potentiation effect of compounds on MMS induced apoptosis in T47D cells is expressed as EC50 values and listed in Table 2.

As to `O=C(c1cccc(Cn2c(=O)[nH]c(=O)c3ccccc32)c1)N1CCN(C(=O)C2CCOCC2)CC1` [Example 13, 1-(3-(4-(Tetrahydro-2H-pyran-4-carbonyl)piperazine-1-carbonyl)benzyl)quinazoline-2,4(1H,3H)-dione], in experiment [1], the IC50 was 727 nM. The EC50 in experiment [2] is 6600 nM.
The matching figures for `CCS(=O)(=O)N1CCN(C(=O)c2cccc(Cn3c(=O)[nH]c(=O)c4ccccc43)c2)CC1` [Example 16, 1-(3-(4-(Ethylsulfonyl)piperazine-1-carbonyl)benzyl)quinazoline-2,4(1H,3H)-dione]: 7260 nM and 9210 nM.
The like results for `CC(=O)N1CCN(C(=O)c2cccc(Cn3c(=O)[nH]c(=O)c4ccccc43)c2)CC1` [Example 17, 1-(3-(4-Acetylpiperazine-1-carbonyl)benzyl)quinazoline-2,4(1H,3H)-dione] were, in that order, > 10000 nM and 5020 nM.
The matching figures for `O=C(c1cccc(Cn2c(=O)[nH]c(=O)c3ccccc32)c1)N1CCN(c2ccccc2)CC1` [Example 19, 1-(3-(4-Phenylpiperazine-1-carbonyl)benzyl)quinazoline-2,4(1H,3H)-dione]: > 10000 nM and > 10000 nM.
Regarding `COC(=O)c1cc(Cn2c(=O)[nH]c(=O)c3ccccc32)ccc1F` [Example 21, 1-(4-Fluoro-3-methoxycarbonylbenzyl)quinazoline-2,4(1H,3H)-dione], the IC50 in experiment [1] was > 10000 nM. Moreover, the EC50 in experiment [2] was 5800 nM.
For the compound `O=C(O)c1cc(Cn2c(=O)[nH]c(=O)c3ccccc32)ccc1F` [Example 22, 1-(3-Carboxy-4-fluorobenzyl)quinazoline-2,4(1H,3H)-dione], the IC50 in experiment [1] is > 10000 nM. The EC50 in experiment [2] is > 10000 nM.
For the compound `O=C(c1cccc(Cn2c(=O)[nH]c(=O)c3ccccc32)c1)N1CCC(N2CCCCC2)CC1` [Example 28, 1-(3-(4-(Piperidin-1-yl)piperidine-1-carbonyl)benzyl)quinazoline-2,4(1H,3H)-dione], the IC50 in experiment [1] was > 10000 nM. For the same compound, the EC50 in experiment [2] was determined as 5890 nM.
The like results for `O=C(c1cccc(Cn2c(=O)[nH]c(=O)c3ccccc32)c1)N1CCN(c2ccncc2)CC1` [Example 29, 1-(3-(4-(Pyridin-4-yl)piperazine-1-carbonyl)benzyl)quinazoline-2,4(1H,3H)-dione] were, in that order, > 10000 nM and > 10000 nM.
For `O=C(c1cccc(Cn2c(=O)[nH]c(=O)c3ccccc32)c1)N1CCC(c2noc3cc(F)ccc23)CC1` [Example 31, 1-(3-(4-(6-Fluorobenzo[d]isoxazol-3-yl)piperidine-1-carbonyl)benzyl)quinazoline-2,4(1H,3H)-dione], in experiment [1], the IC50 turned out to be 2600 nM. Also, in experiment [2], the EC50 amounted to 112 nM.
The like results for `O=C(c1cccc(Cn2c(=O)[nH]c(=O)c3ccccc32)c1)N1CCN(C(=O)c2cccs2)CC1` [Example 32, 1-(3-(4-(Thiophene-2-carbonyl)piperazine-1-carbonyl)benzyl)quinazoline-2,4(1H,3H)-dione] were, in that order, 106 nM and 96 nM.
The matching figures for `O=C(c1cccc(Cn2c(=O)[nH]c(=O)c3ccccc32)c1)N1CCN(C(=O)c2ccco2)CC1` [Example 33, 1-(3-(4-(Furan-2-carbonyl)piperazine-1-carbonyl)benzyl)quinazoline-2,4(1H,3H)-dione]: 130 nM and 96 nM.
In the case of `O=C(c1ccoc1)N1CCN(C(=O)c2cccc(Cn3c(=O)[nH]c(=O)c4ccccc43)c2)CC1` [Example 34, 1-(3-(4-(Furan-3-carbonyl)piperazine-1-carbonyl)benzyl)quinazoline-2,4(1H,3H)-dione], in experiment [1], the IC50 was found to be 294 nM. For the same compound, the EC50 in experiment [2] stood at 104 nM.
The matching figures for `O=C(c1ccsc1)N1CCN(C(=O)c2cccc(Cn3c(=O)[nH]c(=O)c4ccccc43)c2)CC1` [Example 35, 1-(3-(4-(Thiophene-3-carbonyl)piperazine-1-carbonyl)benzyl)quinazoline-2,4(1H,3H)-dione]: 265 nM and 238 nM.
The like results for `O=C(c1cccnc1)N1CCN(C(=O)c2cccc(Cn3c(=O)[nH]c(=O)c4ccccc43)c2)CC1` [Example 36, 1-(3-(4-(Pyridine-3-carbonyl)piperazine-1-carbonyl)benzyl)quinazoline-2,4(1H,3H)-dione] were, in that order, > 10000 nM and > 10000 nM.
The matching figures for `O=C(c1cccc(Cn2c(=O)[nH]c(=O)c3ccccc32)c1)N1CCN(C(=O)c2ccccn2)CC1` [Example 37, 1-(3-(4-(Pyridine-2-carbonyl)piperazine-1-carbonyl)benzyl)quinazoline-2,4(1H,3H)-dione]: > 10000 nM and 1910 nM.
As for `O=C(c1ccncc1)N1CCN(C(=O)c2cccc(Cn3c(=O)[nH]c(=O)c4ccccc43)c2)CC1` [Example 38, 1-(3-(4-(Pyridine-4-carbonyl)piperazine-1-carbonyl)benzyl)quinazoline-2,4(1H,3H)-dione], the IC50 in experiment [1] is > 10000 nM. Besides, the EC50 in experiment [2] turned out to be 267 nM.
The matching figures for `O=C(c1cccc(Cn2c(=O)[nH]c(=O)c3ccccc32)c1)N1CCC(Oc2ccccc2)CC1` [Example 39, 1-(3-(4-Phenoxypiperidine-1-carbonyl)benzyl)quinazoline-2,4(1H,3H)-dione]: 604 nM and 614 nM.
The like results for `O=C(c1ccco1)N1CCN(C(=O)c2cc(Cn3c(=O)[nH]c(=O)c4ccccc43)ccc2F)CC1` [Example 47, 1-(4-Fluoro-3-(4-(furan-2-carbonyl)piperazine-1-carbonyl)benzyl)quinazoline-2,4(1H,3H)-dione] were, in that order, 54 nM and 2.6 nM.
For `O=C(c1ccc(F)c(Cn2c(=O)[nH]c(=O)c3ccccc32)c1)N1CCN(C(=O)c2cccs2)CC1` [Example 52, 1-(6-Fluoro-3-(4-(thiophene-2-carbonyl)piperazine-1-carbonyl)benzyl)quinazoline-2,4(1H,3H)-dione], in experiment [1], the IC50 was 55 nM. In addition, the half-maximal effective concentration (EC50) in experiment [2] was 22 nM.
The like results for `O=C(c1ccc(F)c(Cn2c(=O)[nH]c(=O)c3ccccc32)c1)N1CCN(C(=O)C2CCC2)CC1` [Example 53, 1-(3-(4-(Cyclobutylcarbonyl)piperazine-1-carbonyl)-6-fluorobenzyl)quinazoline-2,4(1H,3H)-dione] were, in that order, 59 nM and 18 nM.
With `O=C(c1ccc(F)c(Cn2c(=O)[nH]c(=O)c3ccccc32)c1)N1CCN(C(=O)c2ccco2)CC1` [Example 54, 1-(6-Fluoro-3-(4-(furan-2-carbonyl)piperazine-1-carbonyl)benzyl)quinazoline-2,4(1H,3H)-dione], in experiment [1], the IC50 amounted to 217 nM. In addition, the EC50 in experiment [2] is 124 nM.
The like results for `O=C(c1ccc(Cl)c(Cn2c(=O)[nH]c(=O)c3ccccc32)c1)N1CCN(C(=O)C2CCCC2)CC1` [Example 55, 1-(6-Chloro-3-(4-(cyclopentylcarbonyl)piperazine-1-carbonyl)benzyl)quinazoline-2,4(1H,3H)-dione] were, in that order, 89 nM and 20 nM.
The matching figures for `O=C(c1ccc(Cl)c(Cn2c(=O)[nH]c(=O)c3ccccc32)c1)N1CCN(C(=O)C2CCCCC2)CC1` [Example 57, 1-(6-Chloro-3-(4-(cyclohexylcarbonyl)piperazine-1-carbonyl)benzyl)quinazoline-2,4(1H,3H)-dione]: 46 nM and 22 nM.
The matching figures for `O=C(c1ccc(Cl)c(Cn2c(=O)[nH]c(=O)c3ccccc32)c1)N1CCN(c2ccccn2)CC1` [Example 58, 1-(6-Chloro-3-(4-(pyridin-2-yl)piperazine-1-carbonyl)benzyl)quinazoline-2,4(1H,3H)-dione]: 171 nM and 108 nM.

The EC50 is the concentration needed to bring the measured effect to its halfway point.
